# ChEMBL document CHEMBL1201862, “PubChem BioAssay data set” (2004)
#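 96-well plates; 48 h exposure; 5 concentrations. Endpoints by linear interpolation between flanking doses. Not reached: highest tested concentration assigned. GI50 is the concentration that inhibits growth by half.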 Activity calls are given as the source filed them. Rule as the data show it: active = GI50 up to about 1.1 µM and inactive = higher.
# What was measured:
# Experiment in all cases: growth of human tumour cells (NCI), 48 h
# OVCAR-3 = tested on: OVCAR-3
# IGROV-1 = tested on: IGROV-1
# SF-295 = tested on: SF-295
# XF498 = tested on: XF498
# SF-539 = tested on: SF-539
# A549 = tested on: A549
# TK-10 = tested on: TK-10
# SNB-78 = tested on: SNB-78
# SK-MEL-28 = tested on: SK-MEL-28
# ACHN = tested on: ACHN
# SW-620 = tested on: SW-620
# SNB-75 = tested on: SNB-75
# M14 = tested on: M14
# COLO 205 = tested on: COLO 205
# OVCAR-5 = tested on: OVCAR-5
# Malme-3M = tested on: Malme-3M
# K562 = tested on: K562
# SK-OV-3 = tested on: SK-OV-3
# HCT-15 = tested on: HCT-15
# M19-MEL = tested on: M19-MEL
# RXF 393 = tested on: RXF 393
# SN12C = tested on: SN12C
# OVCAR-8 = tested on: OVCAR-8
# HT-29 = tested on: HT-29
# HCT-116 = tested on: HCT-116
# CAKI-1 = tested on: CAKI-1
# 786-0 = tested on: 786-0
# MOLT-4 = tested on: MOLT-4
# A498 = tested on: A498
# OVCAR-4 = tested on: OVCAR-4
# UACC-257 = tested on: UACC-257
# KM-20L2 = tested on: KM-20L2
# NCI-H460 = tested on: NCI-H460
# HCC 2998 = tested on: HCC 2998
# CCRF-CEM = tested on: CCRF-CEM
# RPMI-8226 = tested on: RPMI-8226
# HOP-18 = tested on: HOP-18
# DMS-273 = tested on: DMS-273
# UO-31 = tested on: UO-31
# UACC-62 = tested on: UACC-62
# EKVX = tested on: EKVX
# LOX IMVI = tested on: LOX IMVI
# SF-268 = tested on: SF-268
# RXF 631 = tested on: RXF 631
# SNB-19 = tested on: SNB-19
# SK-MEL-5 = tested on: SK-MEL-5
# HL-60 = tested on: HL-60
# DMS-114 = tested on: DMS-114
# SK-MEL-2 = tested on: SK-MEL-2
# DLD-1 = tested on: DLD-1
# NCI-H23 = tested on: NCI-H23
# NCI-H226 = tested on: NCI-H226
# LXFL 529 = tested on: LXFL 529
# U-251 = tested on: U-251
# HOP-92 = tested on: HOP-92
# HOP-62 = tested on: HOP-62
# NCI-H522 = tested on: NCI-H522
# SR = tested on: SR
# KM12 = tested on: KM12
structure (smiles),measurement,setting,value
CC(C(=O)c1ccc(Cl)cc1)/C(=N/NC(=O)NN)C(=O)Nc1cccc(C(F)(F)F)c1 (stereo not given),GI50,OVCAR-3,> 100 µM (inactive)
same,GI50,IGROV-1,> 100 µM (inactive)
same,GI50,SF-295,> 100 µM (inactive)
same,GI50,XF498,> 100 µM (inactive)
same,GI50,SF-539,> 100 µM (inactive)
same,GI50,A549,> 100 µM (inactive)
same,GI50,TK-10,> 100 µM (inactive)
same,GI50,SNB-78,> 100 µM (inactive)
same,GI50,SK-MEL-28,> 100 µM (inactive)
same,GI50,ACHN,> 100 µM (inactive)
same,GI50,SW-620,> 100 µM (inactive)
same,GI50,SNB-75,> 100 µM (inactive)
same,GI50,M14,> 100 µM (inactive)
same,GI50,COLO 205,> 100 µM (inactive)
same,GI50,OVCAR-5,> 100 µM (inactive)
same,GI50,Malme-3M,> 100 µM (inactive)
same,GI50,K562,> 100 µM (inactive)
same,GI50,SK-OV-3,> 100 µM (inactive)
same,GI50,HCT-15,> 100 µM
same,GI50,M19-MEL,> 100 µM (inactive)
same,GI50,RXF 393,22.8 µM (inactive)
same,GI50,SN12C,> 100 µM (inactive)
same,GI50,OVCAR-8,> 100 µM (inactive)
same,GI50,HT-29,> 100 µM (inactive)
same,GI50,HCT-116,> 100 µM (inactive)
same,GI50,CAKI-1,> 100 µM (inactive)
same,GI50,786-0,> 100 µM (inactive)
same,GI50,MOLT-4,> 100 µM (inactive)
same,GI50,A498,> 100 µM (inactive)
same,GI50,OVCAR-4,> 100 µM (inactive)
same,GI50,UACC-257,> 100 µM (inactive)
same,GI50,KM-20L2,> 100 µM (inactive)
same,GI50,NCI-H460,> 100 µM (inactive)
same,GI50,HCC 2998,> 100 µM (inactive)
same,GI50,CCRF-CEM,> 100 µM (inactive)
same,GI50,RPMI-8226,> 100 µM (inactive)
same,GI50,HOP-18,56.5 µM (inactive)
same,GI50,DMS-273,> 100 µM (inactive)
same,GI50,UO-31,> 100 µM (inactive)
same,GI50,UACC-62,> 100 µM (inactive)
same,GI50,EKVX,> 100 µM (inactive)
same,GI50,LOX IMVI,> 100 µM (inactive)
same,GI50,SF-268,> 100 µM (inactive)
same,GI50,RXF 631,> 100 µM (inactive)
same,GI50,SNB-19,> 100 µM (inactive)
same,GI50,SK-MEL-5,> 100 µM (inactive)
same,GI50,HL-60,> 100 µM (inactive)
same,GI50,DMS-114,> 100 µM (inactive)
same,GI50,SK-MEL-2,> 100 µM (inactive)
same,GI50,DLD-1,> 100 µM (inactive)
same,GI50,NCI-H23,> 100 µM (inactive)
same,GI50,NCI-H226,> 100 µM (inactive)
same,GI50,LXFL 529,> 100 µM (inactive)
same,GI50,U-251,> 100 µM (inactive)
CCOc1ccc(/N=N/c2c(-c3ccccc3)nn(C(=O)CC(=O)Nc3cccc(C)c3)c2-c2ccccc2)cc1,GI50,OVCAR-3,> 100 µM (inactive)
same,GI50,HOP-92,> 100 µM (inactive)
same,GI50,IGROV-1,> 100 µM (inactive)
same,GI50,SF-295,> 100 µM (inactive)
same,GI50,XF498,95.1 µM (inactive)
same,GI50,SF-539,76.2 µM (inactive)
same,GI50,A549,> 100 µM (inactive)
same,GI50,TK-10,> 100 µM (inactive)
same,GI50,SNB-78,> 100 µM (inactive)
same,GI50,SK-MEL-28,> 100 µM (inactive)
same,GI50,ACHN,38.5 µM (inactive)
same,GI50,SW-620,> 100 µM (inactive)
same,GI50,HOP-62,> 100 µM (inactive)
same,GI50,SNB-75,27.9 µM (inactive)
same,GI50,M14,> 100 µM (inactive)
same,GI50,COLO 205,> 100 µM (inactive)
same,GI50,OVCAR-5,74.1 µM (inactive)
same,GI50,Malme-3M,> 100 µM (inactive)
same,GI50,K562,38.8 µM (inactive)
same,GI50,SK-OV-3,> 100 µM (inactive)
same,GI50,RXF 393,57.9 µM (inactive)
same,GI50,SN12C,> 100 µM (inactive)
same,GI50,NCI-H522,> 100 µM (inactive)
same,GI50,OVCAR-8,> 100 µM (inactive)
same,GI50,HT-29,22 µM (inactive)
same,GI50,HCT-116,58.5 µM (inactive)
same,GI50,CAKI-1,> 100 µM (inactive)
same,GI50,786-0,> 100 µM (inactive)
same,GI50,MOLT-4,> 100 µM (inactive)
same,GI50,OVCAR-4,> 100 µM (inactive)
same,GI50,UACC-257,> 100 µM (inactive)
same,GI50,KM-20L2,85.5 µM (inactive)
same,GI50,NCI-H460,> 100 µM (inactive)
same,GI50,HCC 2998,26.6 µM (inactive)
same,GI50,CCRF-CEM,76.9 µM (inactive)
same,GI50,RPMI-8226,65.8 µM (inactive)
same,GI50,HOP-18,> 100 µM (inactive)
same,GI50,SR,> 100 µM (inactive)
same,GI50,DMS-273,> 100 µM (inactive)
same,GI50,UO-31,17.7 µM (inactive)
same,GI50,UACC-62,> 100 µM (inactive)
same,GI50,EKVX,38.1 µM (inactive)
same,GI50,LOX IMVI,> 100 µM (inactive)
same,GI50,SF-268,39 µM (inactive)
same,GI50,RXF 631,27.5 µM (inactive)
same,GI50,SNB-19,> 100 µM (inactive)
same,GI50,SK-MEL-5,90.2 µM (inactive)
same,GI50,KM12,41.5 µM (inactive)
same,GI50,HL-60,> 100 µM (inactive)
same,GI50,DMS-114,30.4 µM (inactive)
same,GI50,SK-MEL-2,> 100 µM (inactive)
same,GI50,DLD-1,63.2 µM (inactive)
same,GI50,NCI-H23,> 100 µM (inactive)
same,GI50,NCI-H226,96.4 µM (inactive)
same,GI50,LXFL 529,> 100 µM (inactive)
same,GI50,U-251,56.2 µM (inactive)
O=C(/C=C/c1cccc([N+](=O)[O-])c1)c1ccc([N+](=O)[O-])cc1,GI50,OVCAR-3,> 100 µM (inactive)
same,GI50,IGROV-1,> 100 µM (inactive)
same,GI50,SF-295,> 100 µM (inactive)
same,GI50,XF498,> 100 µM (inactive)
same,GI50,SF-539,> 100 µM (inactive)
same,GI50,A549,> 100 µM (inactive)
same,GI50,TK-10,> 100 µM (inactive)
same,GI50,SNB-78,> 100 µM (inactive)
same,GI50,SK-MEL-28,> 100 µM (inactive)
same,GI50,ACHN,> 100 µM (inactive)
same,GI50,SW-620,> 100 µM (inactive)
same,GI50,HOP-62,> 100 µM (inactive)
same,GI50,SNB-75,> 100 µM (inactive)
same,GI50,M14,> 100 µM (inactive)
same,GI50,COLO 205,> 100 µM (inactive)
same,GI50,OVCAR-5,> 100 µM (inactive)
same,GI50,Malme-3M,> 100 µM (inactive)
same,GI50,K562,> 100 µM (inactive)
same,GI50,SK-OV-3,> 100 µM (inactive)
same,GI50,HCT-15,> 100 µM
same,GI50,M19-MEL,> 100 µM (inactive)
same,GI50,RXF 393,> 100 µM (inactive)
same,GI50,SN12C,> 100 µM (inactive)
same,GI50,NCI-H522,> 100 µM (inactive)
same,GI50,OVCAR-8,> 100 µM (inactive)
same,GI50,HT-29,> 100 µM (inactive)
same,GI50,HCT-116,> 100 µM (inactive)
same,GI50,CAKI-1,> 100 µM (inactive)
same,GI50,786-0,> 100 µM (inactive)
same,GI50,MOLT-4,> 100 µM (inactive)
same,GI50,A498,> 100 µM (inactive)
same,GI50,OVCAR-4,> 100 µM (inactive)
same,GI50,UACC-257,> 100 µM (inactive)
same,GI50,KM-20L2,> 100 µM (inactive)
same,GI50,NCI-H460,> 100 µM (inactive)
same,GI50,HCC 2998,> 100 µM (inactive)
same,GI50,CCRF-CEM,> 100 µM (inactive)
same,GI50,SR,> 100 µM (inactive)
same,GI50,DMS-273,> 100 µM (inactive)
same,GI50,UO-31,> 100 µM (inactive)
same,GI50,UACC-62,> 100 µM (inactive)
same,GI50,EKVX,> 100 µM (inactive)
same,GI50,LOX IMVI,> 100 µM (inactive)
same,GI50,SF-268,> 100 µM (inactive)
same,GI50,RXF 631,> 100 µM (inactive)
same,GI50,SNB-19,> 100 µM (inactive)
same,GI50,SK-MEL-5,> 100 µM (inactive)
same,GI50,KM12,> 100 µM (inactive)
same,GI50,HL-60,> 100 µM (inactive)
same,GI50,SK-MEL-2,> 100 µM (inactive)
same,GI50,DLD-1,> 100 µM (inactive)
same,GI50,NCI-H23,> 100 µM (inactive)
same,GI50,NCI-H226,> 100 µM (inactive)
same,GI50,LXFL 529,> 100 µM (inactive)
same,GI50,U-251,> 100 µM (inactive)
